From patent US10730886B2, “Compound having effect of inhibiting platelet aggregation and salt thereof, and composition for preventing or treating thrombotic diseases, containing same” (SHIN POONG PHARMACEUTICAL CO., LTD., priority 2015, dated 2020)
Like-named read-outs stand apart in the source and are kept apart here.

Experiments:
[1] = tested on: human liver cells (HepG2); test: Cytotoxicity in human liver cells HepG2 (WST-1); type: cell-based; conditions: HepG2, 40 mM, control
Method: 5-3. Evaluation of Cytotoxicity of Candidate Substances Using Human Liver Cells
Experiments were conducted to evaluate cytotoxicity in human liver cells (HepG2). HepG2 cells, which are human liver carcinoma cell lines, were cultured in DMEM (Dulbecco's minimum essential medium) supplemented with 10% FBS (fetal bovine serum) and 1% Penicillin/Streptomycin at 37° C. and 5% CO2. The cells were cultured in a 48 well plate at 4×10^4 cells/well for 24 hours and then used in the experiments. The HepG2 cells were treated with the candidate substances (250 μM) for 18 hours, and then the medium was removed and WST-1 was added, followed by shading for 3 hours for reaction. After 3 hours, the supernatant was taken and absorbance was measured at 450 nm. Cell viability was calculated by comparing the absorbance measured after adding WST-1 to HepG2 cells not treated with the candidate substances. Acetaminophen (40 mM) was used as a control.

ICR mouse = conditions: male, in vivo, po, 7 days
Method: One hour after the last administration, the mice were anesthetized by breathing, and the 4 mm portion from the tail tip of the mice was cut. Then, the tail tip of the mice was immersed in a transparent 15-ml tube containing the pre-prepared 37° C. saline. The time when blood was not spread any more and the bleeding stopped was measured.

Sprague-Dawley rats = test: Bleeding side effect (tail bleeding time) after single oral administration; type: in vivo; conditions: rat, tail cut 1 hour after administration
Method: Male Sprague-Dawley rats (250 to 300 g) were fasted overnight and then were orally administered with the candidate substances at each concentration. After 1 hour, the rats were anesthetized by intraperitoneal injection of urethane (1.25 g/kg). The 3 mm portion of the tail tip of the rats was cut and carefully wiped every 30 seconds. Bleeding time was measured in […] until no more blood was drawn, and when the bleeding lasted longer than 30 minutes, the bleeding time was recorded as 30 minutes.

[2] = tested on: carotid artery shear stress model; test: Carotid artery shear stress model, amount of thrombus; type: in vivo, Sprague-Dawley rats; conditions: rat, twice a day for 3 days after operation
Method: Vehicle (0.5% methylcellulose), clopidogrel (8 mg/kg), aspirin (50 mg/kg) or a candidate substance was orally administered to male Sprague-Dawley rats (250 to 300 g). 2 hours after administration, the rats were anesthetized by ketamine/rompun (ketamine/xylazine) cocktail 0.1 ml/100 g. Except for the normal control group, the right cervical skin of the experimental animals was incised to expose the common carotid artery. A surgical tube with a length of 1 mm and an inside diameter of 0.58 mm was inserted into the exposed carotid artery and tied with a single thread. The exposed site and the operation site were treated with an anti-adhesion agent, and then sutured for the animals to recover. After the surgery, vehicle, clopidogrel, aspirin or a candidate substance was orally administered to the rats twice a day for 3 days. On the fourth day, 2 hours after the final administration, urethane (100 mg/300 μl/100 g) was administered intraperitoneally to the rats to induce anesthesia, and the operation site was opened to separate a total of 1 cm of the blood vessel, 5 mm above and 5 mm below the surgical tube. The separated blood vessel was perfused with 0.2 ml of 0.9% saline at 0.3 ml/min to remove the remaining blood, and then maintained in 1 ml of protein lysis buffer (NaOH 2 g, Na2CO3 0.1 g in 500 ml D.W). After collected, the blood vessel thrombus was double-boiled in boiling water together with the protein lysis buffer. 200 μl of the reaction solution (10 ml bicinchoninic acid solution+200 μl 4% aqueous solution of copper sulfate) was added to 10 μl of the heated thrombus, and the mixture was reacted at 37° C. for 30 minutes and quantified with an ELISA reader (562 nm).

[3] = tested on: ADP-induced platelet aggregation, Human PRP; test: ADP-induced platelet aggregation in human PRP (lumi-aggregometer); type: cell-based
Method: To investigate whether the candidate substance has inhibition selectivity for shear-stress-induced platelet aggregation, which is by a physical stimulus, […] experiment was conducted by activating platelets with physiological agonists—i.e., thrombin, collagen and ADP—to study the inhibitory effect of the candidate substance.
Human PRP (598.8 μl) was treated with 1.2 μl of the candidate substance per concentration (25, 100, 250 μM) and reacted at 37° C. for 3 minutes using a thermomixer. Then, PRP (495 μl) was put in the aggregometer cuvette and preincubated for 1 minute, followed by treatment with platelet aggregation-inducing reagent, thrombin (0.6-0.8 U/ml), collagen (2-5 μg/ml), or ADP (adenosine diphosphate, 15-20 μM) at the minimum concentration causing maximum aggregation. The degree of aggregation of the platelets was measured by a turbidity change using a lumi-aggregometer (Chrono-Log Co., USA). The turbidity of the PRP was considered as 0%, and the turbidity of the PPP was considered as 100%. During the measurement, the reaction mixture was continuously stirred at 1,000 rpm with a silicone-coated magnetic stir bar.

[4] = tested on: Human Platelet Rich Plasma (PRP); test: Shear stress-induced platelet aggregation inhibition in human platelet rich plasma (PRP), cone-plate viscometer; type: cell-based; conditions: Homo sapiens, Platelet, Table 1 summary bins; concentration and matrix not given; read-out: Inhibitory effect of shear stress-induced platelet aggregation
Method: 1-1. Measurement of Platelet Aggregation Inhibitory Effect Using Human Platelet Rich Plasma (PRP)
Blood was collected from the veins of healthy male volunteers who had not taken any medication for more than 2 weeks. All related studies were conducted under the approval of the Seoul National University Institutional Review Board (IRB No. 1305/001-016). During the whole process of study the use of glass containers or glass pipettes was avoided, and the experiments were performed at room temperature. To separate platelet rich plasma (PRP), the blood was collected with 3.2% sodium citrate as an anticoagulant. The whole blood was centrifuged at 150 g for 15 minutes to obtain the supernatant (PRP), and the residue was centrifuged at 2,000 g for 20 minutes to obtain platelet poor plasma (PPP). The number of platelets of the PRP thus obtained was counted with an optical microscope using a hemacytometer. PRP was diluted with PPP so as to include 3×10^8 platelets per 1 ml, and then used in the experiments. PRP was put on a cone-plate viscometer (RotoVisco 1, Thermo Fischer Scientific, USA), and shear stress was applied to the PRP at 37° C. for 3 minutes at a shear rate of 10,800 s^−1. In order to evaluate candidate substances, prior to the induction of platelet aggregation, 598.8 μl of PRP was treated with 1.2 μl of 25 μM candidate substance and incubated at 37° C. for 3 minutes using a thermomixer. After applying the shear stress, 20 μl of PRP was fixed in 280 μl of a suspension buffer containing 0.5% glutaraldehyde (134 mM NaCl, 2.9 mM KCl, 1.0 mM MgCl2.6H2O, 10.0 mM HEPES, 5.0 mM dextrose, 12.0 mM NaHCO3, 0.34 mM Na2HPO4, 0.3% BSA, pH 7.4). Then, the number of single platelets in the suspension was counted using a hemacytometer. The degree of inhibition by the candidate substance was calculated according to the following formula (1). The degree of inhibition was determined by the method described below. No shear stress-applied group served as a control, and only shear stress-applied group served as positive control. Degree of inhibition (%)=[(1−A/B)×100]/[(1−A/C)×100] Formula 1
A: Number of single platelets in the shear stress-applied sample after treatment with candidate substance
B: Number of single platelets in the control group with no shear stress applied
C: Number of single platelets in the positive control group with only shear stress applied

| Compound | inhibition at 25 µM [4] | other results |
| --- | --- | --- |
| CC(=O)Nc1ccc(O)cc1 [Acetaminophen, reference compound] |  | Cell vaibility (%) [1]: 35.3 ± 3.5% |
| CC(=O)Oc1ccccc1C(=O)O [Aspirin, aspirin, reference compound] |  | Bleeding time (ICR mouse; 100 mg/kg): 12.3 ± 0.7 min; Bleeding time (min) (ICR mouse; 100 mg/kg): exceeded 12 min; bleeding time delayed, times compared with the control group (ICR mouse; 100 mg/kg): about 7.6 times; Bleeding time (Sprague-Dawley rats; 25 μM (so in the source)): 9.5 ± 0.8 min; Bleeding time (Sprague-Dawley rats; 100 μM (so in the source)): 15.1 ± 0.8 min; Amount of thrombus (mg, Mean ± SEM) ([2]; 50 mg/kg oral): 0.092 ± 0.007 mg |
| COC(=O)[C@H](c1ccccc1Cl)N1CCc2sccc2C1 [Clopidogrel, clopidogrel, reference compound] |  | Bleeding time (ICR mouse; 15 mg/kg): 35.4 ± 2.9 min; Bleeding time (min) (ICR mouse; 15 mg/kg): exceeded 35 min; bleeding time delayed, times compared with the control group (ICR mouse; 15 mg/kg): about 22 times; Bleeding time (Sprague-Dawley rats; 2.5 μM (so in the source)): 14.3 ± 1.6 min; Bleeding time (Sprague-Dawley rats; 25 μM (so in the source)): 26.8 ± 1.6 min; Degree of platelet aggregation (%, Mean ± SEM) ([3]; ADP 15-20 μM, compound 40 μM): 18.3 ± 3.4%; platelet aggregation compared with the group treated with ADP only ([3]; positive control, 40 μM): platelet aggregation was inhibited; Amount of thrombus (mg, Mean ± SEM) ([2]; 8 mg/kg oral): 0.067 ± 0.004 mg |
| O=C(c1ccc(O)c(O)c1)N1CCC(c2noc3ccc(F)cc23)CC1 [Example 2, (3,4-Dihydroxyphenyl)(4-(5-fluorobenzo[d]isoxazol-3-yl)piperidin-1-yl)methanone] | 20 to 30% |  |
| O=C(NCC1CN(Cc2ccc(F)cc2)CCO1)c1ccc(O)c(O)c1 (stereo not shown) [Example 3, N-((4-(4-Fluorobenzyl)morpholin-2-yl)methyl)-3,4-dihydroxybenzamide] | ≥ 30% |  |
| O=C(NC1CCSC1=O)c1ccc(O)c(O)c1 (stereo not shown) [Example 4, 3,4-Dihydroxy-N-(2-oxotetrahydrothiophen-3-yl)benzamide] | ≥ 30% |  |
| O=C(NCCCCCCCCCNC(=O)c1ccc(O)c(O)c1)c1ccc(O)c(O)c1 [Example 5, N,N′-(Nonan-1,9-diyl)bis(3,4-dihydroxybenzamide)] | 20 to 30% |  |
| O=C(c1ccc(O)c(O)c1)N1CCC(OC(c2ccc(Cl)cc2)c2ccccn2)CC1 (stereo not shown) [Example 6, (4-((4-Chlorophenyl)(pyridin-2-yl)methoxy)piperidin-1-yl)(3,4-dihydroxyphenyl)methanone] | 20 to 30% |  |
| O=C(c1ccc(O)c(O)c1)N1CCC(O[C@@H](c2ccc(Cl)cc2)c2ccccn2)CC1 [Example 7, (S)-(4-((4-Chlorophenyl)(pyridin-2-yl)methoxy)piperidin-1-yl)(3,4-dihydroxyphenyl)methanone] | 20 to 30% |  |
| COC(=O)[C@H](Cc1c[nH]c2ccccc12)NC(=O)c1ccc(O)c(O)c1 [Example 8, (S)-Methyl-2-(3,4-dihydroxybenzamido)-3-(1H-indol-3-yl)propanoate] | 20 to 30% |  |
| CCCc1nn(C)c(C(N)=O)c1NC(=O)c1ccc(O)c(O)c1 [Example 9, 4-(3,4-Dihydroxybenzamido)-1-methyl-3-propyl-1H-pyrazole-5-carboxamide] | 20 to 30% |  |
| Cc1occc(=O)c1OC(=O)c1ccc(O)c(O)c1 [Example 10, 2-Methyl-4-oxo-4H-pyran-3-yl 3,4-dihydroxybenzoate] | 20 to 30% |  |
| O=C(c1ccc(O)c(O)c1)N1CCN(c2ccccc2)CC1 [Example 11, (3,4-Dihydroxyphenyl)(4-phenylpiperazin-1-yl)methanone] | ≥ 30% |  |
| C#Cc1cccc(NC(=O)c2ccc(O)c(OC)c2)c1 [Example 16, N-(3-Ethynylphenyl)-4-hydroxy-3-methoxybenzamide] | ≥ 30% |  |
| CNC(=O)c1cc(Oc2ccc(NC(=O)c3ccc(O)c(OC)c3)cc2)ccn1 [Example 17, 4-(4-(4-Hydroxy-3-methoxybenzamido)phenoxy)-N-methylpicolinamide] | 20 to 30% |  |
| COc1cc(C(=O)N2CCC(OC(c3ccc(Cl)cc3)c3ccccn3)CC2)ccc1O (stereo not shown) [Example 18] | ≥ 30% |  |
| COc1cc(C(=O)NCc2c(CO)cnc(C)c2O)ccc1O [Example 19, 4-Hydroxy-N-((3-hydroxy-5-(hydroxymethyl)-2-methylpyridin-4-yl)methyl)-3-methoxybenzamide] | 20 to 30% |  |
| O=C(c1cc(O)ccc1O)N1CCC(OC(c2ccc(Cl)cc2)c2ccccn2)CC1 (stereo not shown) [Example 21, (4-((4-Chlorophenyl)(pyridin-2-yl)methoxy)piperidin-1-yl)(2,5-dihydroxyphenyl)methanone] | 20 to 30% |  |
| O=C(NCC1CN(Cc2ccc(F)cc2)CCO1)c1cc(O)ccc1O (stereo not shown) [Example 22, N-((4-(4-Fluorobenzyl)morpholin-2-yl)methyl)-2,5-dihydroxybenzamide] | ≥ 30% |  |
| COc1ccc(CCNC(=O)c2cc(O)ccc2O)cc1OC [Example 24, N-(3,4-Dimethoxyphenethyl)-2,5-dihydroxybenzamide] | 20 to 30% |  |
| O=C(NCCc1cccs1)c1cc(O)ccc1O [Example 25, 2,5-Dihydroxy-N-(2-(thiophen-2-yl)ethyl)benzamide] | 20 to 30% |  |
| O=C(NC1CCSC1=O)c1cc(O)ccc1O (stereo not shown) [Example 26, 2,5-Dihydroxy-N-(2-oxotetrahydrothiophen-3-yl)benzamide] | 20 to 30% |  |
